Source: US11040028B2, “Penicinotam derivative, preparation method and use thereof” (OCEAN UNIVERSITY OF CHINA, priority 2017, dated 2021)

Tests used:
Type in all cases: cell-based
[1] = test system: cardiac fibroblast RAT-iCell-C002; test: Anti-fibrosis activity test: inhibition of proliferation of cardiac fibroblast RAT-iCell-C002 (CCK-8); conditions: Cardiac fibroblast, 48 h, cardiac fibroblast RAT-iCell-C002, CCK-8, 48 hours
Outline: (§1)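 Cells were seeded at 2×10^4 cells/mL and allowed to adhere for 24 h at 37° C, 5% CO2, then exposed to graded compound concentrations in triplicate for 48 h. CCK-8 was added for 2 h, A450 was read, and IC50 was derived from inhibition rate = (1−Ai/Ao)×100%.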

[2] = test system: NF-κB; test: Immunological activity test: inhibition of NF-κB activity; conditions: initial concentration of 30 μM; a/b isomers given as first/second symbol; read-out: IC50 (μM), inhibitory activity against NF-κB
Excerpt: Main references for immunological activity test of the compounds of the present application includes: Vogl, S.; Atanasov, A. G.; Binder, M.; Bulusu, M.; Zehl, M.; Fakhrudin, N.; Heiss, E. H.; Picker, P.; Wawrosch, C.; Saukel, J.; Reznicek, G.; Urban, E.; Bochkov, V.; Dirsch, V. M.; Kopp, B. J. Evid-Based Complementary Alern. Med. 2013, ID 395316. Commercially available parthenolide was utilized as a positive control.
The ability of the compounds of the present application to inhibit NF-κB activity was tested at an initial concentration of 30 μM.
The assay data for the compounds of the present application were further analyzed to determine their IC50 values.

[3] = test system: human fibrosarcoma cells HT-1080; test: Anti-fibrosis activity test: inhibition of proliferation of human fibrosarcoma cells HT-1080 (CCK-8); conditions: Homo sapiens, HT-1080, 48 h, human fibrosarcoma cells HT-1080, CCK-8, 48 hours
Outline: as §1

[4] = test system: human dermal fibroblasts CCC-ESF-1; test: Anti-fibrosis activity test: inhibition of proliferation of human dermal fibroblasts CCC-ESF-1 (CCK-8); conditions: Fibroblast; human dermal fibroblasts CCC-ESF-1, CCK-8, 48 hours
Outline: as §1

[5] = test system: human lung fibroblasts HFL1; test: Anti-fibrosis activity test: inhibition of proliferation of human lung fibroblasts HFL1 (CCK-8); conditions: Homo sapiens, HFL1, 48 h, human lung fibroblasts HFL1, CCK-8, 48 hours
Outline: as §1

[6] = test system: BHK-21 cells; test: Anti-fibrosis activity test: inhibition of BHK-21 cell proliferation (CCK-8); conditions: Mesocricetus auratus, BHK-21, 48 h, CCK-8, 48 hours after administration
Outline: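 Cells seeded at 2×10^4 cells/mL, allowed to adhere 24 hours, then exposed to graded compound concentrations in triplicate for 48 hours at 37° C, 5% CO2. CCK-8 added for 2 hours, absorbance read at 450 nm; inhibition versus blank control used to derive IC50. Pirfenidone served as positive control.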

[7] = test system: human hepatic stellate cells LX-2; test: Anti-fibrosis activity test: inhibition of proliferation of human hepatic stellate cells LX-2 (CCK-8); conditions: Homo sapiens, 48 h, human hepatic stellate cells LX-2, CCK-8, 48 hours
Outline: as §1

[8] = test system: human embryonic lung fibroblast IMR-90; test: Anti-fibrosis activity test: inhibition of proliferation of human embryonic lung fibroblast IMR-90 (CCK-8); conditions: human embryonic lung fibroblast IMR-90, CCK-8, 48 hours
Outline: as §1

Row | SMILES | IC50 [1] [mM] | IC50 [2] [µM] | IC50 [3] [mM] | IC50 [4] [mM] | IC50 [5] [mM] | IC50 [6] [mM] | IC50 [7] [mM] | IC50 [8] [mM]
1 | CC(C)=CCOc1c2c(nc3ccccc13)-c1cccn1C2=O [Compound 9b, 9-((3-methylbut-2-en-1-yl)oxy)-10H-pyrrolizino[1,2-b]quinolin-10-one] | 0.05 to 5 | 1 to 10 | 0.05 to 5 | 5 to 20 | 0.05 to 5 | 5 to 20 | 0.05 to 5 | 0.05 to 5
2 | O=C1c2c(n(-c3ccc(F)cc3)c3ccccc3c2=O)-c2cccn21 [Compound 18a, 4-(4-Fluorophenyl)-9H-pyrrolizino[1,2-b]quinoline-9,10(4H)-dione] | 0.05 to 5 | 0.1 to 1 | 0.05 to 5 | 0.05 to 5 | 0.05 to 5 | < 0.05 | 5 to 20 | 0.05 to 5
3 | O=C1c2c(nc3ccccc3c2Oc2ccc(F)cc2)-c2cccn21 [Compound 18b, 9-(4-fluorophenoxy)-10H-pyrrolizino[1,2-b]quinolin-10-one] | 0.05 to 5 | 1 to 10 | 0.05 to 5 | 0.05 to 5 | 0.05 to 5 | 0.05 to 5 | 0.05 to 5 | 0.05 to 5
4 | O=C1c2c(n(-c3ccc(Cl)cc3)c3ccccc3c2=O)-c2cccn21 [Compound 34a, 4-(4-Chlorophenyl)-9H-pyrrolizino[1,2-b]quinoline-9,10(4H)-dione] | 0.05 to 5 | 0.1 to 1 | 0.05 to 5 | 5 to 20 | 0.05 to 5 | < 0.05 | 0.05 to 5 | 0.05 to 5
5 | O=C1c2c(nc3ccccc3c2Oc2ccc(Cl)cc2)-c2cccn21 [Compound 34b, 9-(4-chlorophenoxy)-10H-pyrrolizino[1,2-b]quinolin-10-one] | 0.05 to 5 | 1 to 10 | 0.05 to 5 | < 0.05 | 0.05 to 5 | 0.05 to 5 | 0.05 to 5 | 0.05 to 5
6 | O=C1c2c(n(-c3ccc(Br)cc3)c3ccccc3c2=O)-c2cccn21 [Compound 64a, 4-(4-Bromophenyl)-9H-pyrrolizino[1,2-b]quinoline-9,10(4H)-dione] | 0.05 to 5 | 1 to 10 | 0.05 to 5 | 0.05 to 5 | 0.05 to 5 | 0.05 to 5 | 0.05 to 5 | 0.05 to 5
7 | O=C1c2c(nc3ccccc3c2Oc2ccc(Br)cc2)-c2cccn21 [Compound 64b, 9-(4-bromophenoxy)-10H-pyrrolizino[1,2-b]quinolin-10-one] | 0.05 to 5 | 1 to 10 | 0.05 to 5 | 0.05 to 5 | 0.05 to 5 | 0.05 to 5 | 0.05 to 5 | 0.05 to 5
8 | N#Cc1ccc2c(=O)c3c(n(Cc4ccc(F)cc4)c2c1)-c1cccn1C3=O [Compound 514a, 4-(4-Fluorobenzyl)-9,10-dioxo-4,10-dihydro-9H-pyrrolizino[1,2-b]quinoline-6-carbonitrile] | 0.05 to 5 | 1 to 10 | 0.05 to 5 | 0.05 to 5 | 0.05 to 5 | < 0.05 | 0.05 to 5 | 0.05 to 5
9 | N#Cc1ccc2c(OCc3ccc(F)cc3)c3c(nc2c1)-c1cccn1C3=O [Compound 514b, 9-((4-fluorobenzyl)oxy)-10-oxo-10H-pyrrolizino[1,2-b]quinoline-6-carbonitrile] | 0.05 to 5 | 1 to 10 | 0.05 to 5 | 0.05 to 5 | 0.05 to 5 | 0.05 to 5 | 0.05 to 5 | 0.05 to 5
10 | N#Cc1ccc2c(=O)c3c(n(Cc4cccc(F)c4)c2c1)-c1cccn1C3=O [Compound 515a, 4-(3-Fluorobenzyl)-9,10-dioxo-4,10-dihydro-9H-pyrrolizino[1,2-b]quinoline-6-carbonitrile] | 0.05 to 5 | 1 to 10 | 5 to 20 | 0.05 to 5 | 0.05 to 5 | 0.05 to 5 | 0.05 to 5 | 0.05 to 5
11 | N#Cc1ccc2c(OCc3cccc(F)c3)c3c(nc2c1)-c1cccn1C3=O [Compound 515b, 9-((3-fluorobenzyl)oxy)-10-oxo-10H-pyrrolizino[1,2-b]quinoline-6-carbonitrile] | < 0.05 | 1 to 10 | 5 to 20 | 0.05 to 5 | 0.05 to 5 | 0.05 to 5 | 0.05 to 5 | 5 to 20
12 | N#Cc1ccc2c(=O)c3c(n(Cc4ccccc4F)c2c1)-c1cccn1C3=O [Compound 516a, 4-(2-Fluorobenzyl)-9,10-dioxo-4,10-dihydro-9H-pyrrolizino[1,2-b]quinoline-6-carbonitrile] | 0.05 to 5 | 0.1 to 1 | 0.05 to 5 | 0.05 to 5 | 0.05 to 5 | < 0.05 | 0.05 to 5 | 0.05 to 5
13 | N#Cc1ccc2c(OCc3ccccc3F)c3c(nc2c1)-c1cccn1C3=O [Compound 516b, 9-((2-fluorobenzyl)oxy)-10-oxo-10H-pyrrolizino[1,2-b]quinoline-6-carbonitrile] | 0.05 to 5 | 0.1 to 1 | 0.05 to 5 | 0.05 to 5 | 0.05 to 5 | 0.05 to 5 | 0.05 to 5 | 0.05 to 5
14 | O=C1c2c(n(Cc3ccc(Cl)cc3)c3cc(C(F)(F)F)ccc3c2=O)-c2cccn21 [Compound 544a, 4-(4-Chlorobenzyl)-6-(trifluoromethyl)-9H-pyrrolizino[1,2-b]quinoline-9,10(4H)-dione] | 0.05 to 5 | 10 to 50 | 0.05 to 5 | 0.05 to 5 | 0.05 to 5 | < 0.05 | 0.05 to 5 | 0.05 to 5
15 | O=C1c2c(nc3cc(C(F)(F)F)ccc3c2OCc2ccc(Cl)cc2)-c2cccn21 [Compound 544b, 9-((4-chlorobenzyl)oxy)-6-(trifluoromethyl)-10H-pyrrolizino[1,2-b]quinolin-10-one] | 0.05 to 5 | 1 to 10 | 0.05 to 5 | 0.05 to 5 | 0.05 to 5 | 0.05 to 5 | 0.05 to 5 | 0.05 to 5
16 | O=C1c2c(n(Cc3cccc(Cl)c3)c3cc(C(F)(F)F)ccc3c2=O)-c2cccn21 [Compound 545a, 4-(3-Chlorobenzyl)-6-(trifluoromethyl)-9H-pyrrolizino[1,2-b]quinoline-9,10(4H)-dione] | 0.05 to 5 | 1 to 10 | 5 to 20 | 0.05 to 5 | 0.05 to 5 | 0.05 to 5 | 0.05 to 5 | 0.05 to 5
17 | O=C1c2c(nc3cc(C(F)(F)F)ccc3c2OCc2cccc(Cl)c2)-c2cccn21 [Compound 545b, 9-((3-chlorobenzyl)oxy)-6-(trifluoromethyl)-10H-pyrrolizino[1,2-b]quinolin-10-one] | 0.05 to 5 | 1 to 10 | 0.05 to 5 | 0.05 to 5 | 0.05 to 5 | 0.05 to 5 | 0.05 to 5 | 0.05 to 5
18 | O=C1c2c(n(Cc3ccccc3Cl)c3cc(C(F)(F)F)ccc3c2=O)-c2cccn21 [Compound 546a, 4-(2-Chlorobenzyl)-6-(trifluoromethyl)-9H-pyrrolizino[1,2-b]quinoline-9,10(4H)-dione] | 0.05 to 5 | 1 to 10 | 0.05 to 5 | 0.05 to 5 | 0.05 to 5 | < 0.05 | 0.05 to 5 | 0.05 to 5
19 | O=C1c2c(nc3cc(C(F)(F)F)ccc3c2OCc2ccccc2Cl)-c2cccn21 [Compound 546b, 9-((2-chlorobenzyl)oxy)-6-(trifluoromethyl)-10H-pyrrolizino[1,2-b]quinolin-10-one] | 0.05 to 5 | 0.1 to 1 | 0.05 to 5 | 0.05 to 5 | 0.05 to 5 | 0.05 to 5 | 0.05 to 5 | 0.05 to 5
20 | O=C1c2c(n(Cc3ccc(F)cc3)c3ccc(F)cc3c2=O)-c2cccn21 [Compound 617a, 7-Fluoro-4-(4-fluorobenzyl)-9H-pyrrolizino[1,2-b]quinoline-9,10(4H)-dione] | 0.05 to 5 | 0.1 to 1 | 0.05 to 5 | 0.05 to 5 | 0.05 to 5 | < 0.05 | 0.05 to 5 | 0.05 to 5
